These results are taken from patent US20240156825A1, “USE OF SELECTIVE VEGFR2 AND FGFR1 INHIBITORS” (Fountain Therapeutics Inc., priority 2022, published 2024).

Read-outs that look alike come from different tables or passages of the source.

One experiment has as its target FGFR1 (Homo sapiens, UniProt P11362). Conditions: relative IC50: reported IC50 toward FGFR1 divided by next lowest reported IC50 to any gene target.
The subject of another experiment is any gene target. The following applies: cited from earlier work.
Another experiment concerns VEGFR2 and FGFR1. Nature of the experiment: Selection of compounds that selectively inhibit both VEGFR2 and FGFR1 (average relative IC50). Type of experiment: biochemical. The following applies: average of VEGFR2 and FGFR1 relative IC50.
The target of experiment [1] is T1, VEGFR2 (Homo sapiens, UniProt P35968). The following applies: relative IC50: reported IC50 toward VEGFR2 divided by next lowest reported IC50 to any gene target.
T1 sequence (P35968 20-1356, species assumed): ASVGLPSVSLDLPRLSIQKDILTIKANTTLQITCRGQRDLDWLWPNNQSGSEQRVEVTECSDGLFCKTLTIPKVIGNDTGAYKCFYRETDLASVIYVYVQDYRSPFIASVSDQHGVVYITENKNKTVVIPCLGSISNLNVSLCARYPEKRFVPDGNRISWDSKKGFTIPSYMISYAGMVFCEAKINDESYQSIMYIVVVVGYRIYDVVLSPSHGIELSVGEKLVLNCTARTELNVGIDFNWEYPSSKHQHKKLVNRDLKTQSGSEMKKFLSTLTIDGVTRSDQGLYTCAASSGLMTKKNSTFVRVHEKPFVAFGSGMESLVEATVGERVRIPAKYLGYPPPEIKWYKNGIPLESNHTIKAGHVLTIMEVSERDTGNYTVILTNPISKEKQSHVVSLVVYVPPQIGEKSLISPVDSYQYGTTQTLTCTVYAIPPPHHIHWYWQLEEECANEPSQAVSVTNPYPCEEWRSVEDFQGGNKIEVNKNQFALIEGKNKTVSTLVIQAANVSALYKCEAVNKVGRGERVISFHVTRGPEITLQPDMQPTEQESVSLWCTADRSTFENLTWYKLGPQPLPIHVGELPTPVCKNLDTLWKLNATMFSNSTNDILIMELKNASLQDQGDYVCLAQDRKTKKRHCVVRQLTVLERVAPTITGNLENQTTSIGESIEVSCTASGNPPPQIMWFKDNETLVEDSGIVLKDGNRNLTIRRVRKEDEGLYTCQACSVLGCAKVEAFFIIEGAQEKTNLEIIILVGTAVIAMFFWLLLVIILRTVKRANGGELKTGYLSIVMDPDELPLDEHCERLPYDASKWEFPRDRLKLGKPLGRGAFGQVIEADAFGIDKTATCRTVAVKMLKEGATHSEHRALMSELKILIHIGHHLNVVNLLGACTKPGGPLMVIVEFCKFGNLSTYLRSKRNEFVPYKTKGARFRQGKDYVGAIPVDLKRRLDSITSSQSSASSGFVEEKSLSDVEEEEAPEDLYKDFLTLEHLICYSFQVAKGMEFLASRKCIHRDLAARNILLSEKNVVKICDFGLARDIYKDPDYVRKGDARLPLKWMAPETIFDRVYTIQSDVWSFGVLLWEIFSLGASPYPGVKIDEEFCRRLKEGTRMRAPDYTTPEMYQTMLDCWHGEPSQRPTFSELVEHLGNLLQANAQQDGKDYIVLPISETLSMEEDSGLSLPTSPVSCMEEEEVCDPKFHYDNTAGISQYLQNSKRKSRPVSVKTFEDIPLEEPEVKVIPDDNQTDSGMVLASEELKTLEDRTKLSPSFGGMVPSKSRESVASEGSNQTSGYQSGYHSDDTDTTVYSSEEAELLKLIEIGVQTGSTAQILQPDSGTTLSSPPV
In experiment [2] the target is T1, VEGFR2. The following applies: reported IC50 to VEGFR2, read-out: VEGFR2 IC50_μM, cited from earlier work.
Where [3] appears, read: lowest reported IC50 to any gene target, read-out: min IC50.
The mark [4] stands for this setting: next lowest IC50 value to any gene target, Table 3, read-out: Min IC50_μM.
[5] abbreviates: Table 3, selective inhibitors of VEGFR2.
[6] abbreviates: next lowest IC50 value to any gene target, read-out: Min IC50_μM.

Chain of FGFR1 (P11362 22-822, species assumed): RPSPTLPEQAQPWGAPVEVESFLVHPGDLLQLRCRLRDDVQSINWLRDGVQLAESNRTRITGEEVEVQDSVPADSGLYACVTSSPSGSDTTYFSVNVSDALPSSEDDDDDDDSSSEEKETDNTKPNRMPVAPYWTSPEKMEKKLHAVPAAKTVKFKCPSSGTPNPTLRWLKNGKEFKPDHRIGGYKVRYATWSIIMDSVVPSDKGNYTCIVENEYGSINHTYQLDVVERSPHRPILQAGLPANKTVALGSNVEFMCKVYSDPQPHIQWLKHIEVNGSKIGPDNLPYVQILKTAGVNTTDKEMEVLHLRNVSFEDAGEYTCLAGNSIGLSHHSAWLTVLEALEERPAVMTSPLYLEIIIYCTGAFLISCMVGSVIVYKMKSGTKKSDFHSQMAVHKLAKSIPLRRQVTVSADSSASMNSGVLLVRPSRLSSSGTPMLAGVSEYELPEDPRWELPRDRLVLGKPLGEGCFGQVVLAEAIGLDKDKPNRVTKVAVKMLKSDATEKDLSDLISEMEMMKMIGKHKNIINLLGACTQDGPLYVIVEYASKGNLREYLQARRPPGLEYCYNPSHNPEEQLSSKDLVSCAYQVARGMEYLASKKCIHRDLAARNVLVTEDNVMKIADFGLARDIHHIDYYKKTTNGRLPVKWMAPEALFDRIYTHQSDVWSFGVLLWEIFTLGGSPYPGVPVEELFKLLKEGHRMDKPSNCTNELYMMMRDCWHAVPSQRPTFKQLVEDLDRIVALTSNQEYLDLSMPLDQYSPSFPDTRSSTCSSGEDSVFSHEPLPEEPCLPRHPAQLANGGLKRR

Turning to `CONC(=O)c1cc(Nc2ncnn3cc(-c4nnc(N(C)C)o4)c(C(C)C)c23)c(F)cc1F` [compound 9982235, 5-[6-(5-Dimethylamino-[1,3,4]oxadiazol-2-yl)-5-isopropyl-pyrrolo[2,1-f][1,2,4]triazin-4-ylamino]-2,4-difluoro-N-methoxy-benzamide, reference compound], the “FGFR1, rIC50” value on FGFR1 was determined as 1.1. Besides, the IC50 with any gene target (setting [3]) is 7 nM; in the experiment on any gene target (setting [4]), 6.7 nM; on VEGFR2 [2] (setting [5]) it was 6.7 nM. In addition, in the experiment on VEGFR2 and FGFR1, the “avg rIC50” value was 1.0. Also, on VEGFR2 [1], the “VEGFR2, rIC50” value stood at 1.0.
As for `CONC(=O)c1cc(Nc2ncnn3cc(-c4nnc(CC(F)(F)F)o4)c(C(C)C)c23)c(F)cc1F` [compound 11455031, 2,4-Difluoro-5-{5-isopropyl-6-[5-(2,2,2-trifluoro-ethyl)-[1,3,4]oxadiazol-2-yl]-pyrrolo[2,1-f][1,2,4]triazin-4-ylamino}-N-methoxy-benzamide, reference compound], the “FGFR1, rIC50” value on FGFR1 is given as 1.8. In addition, the IC50 in the experiment with any gene target (setting [3]), in the experiment on any gene target (setting [4]) and on VEGFR2 [2] (setting [5]) was 25 nM in each case. The “avg rIC50” value in the experiment on VEGFR2 and FGFR1 worked out at 1.4. Also, on VEGFR2 [1], the “VEGFR2, rIC50” value was determined as 1.0.
Consider `CCc1nnc(-c2cn3ncnc(Nc4cc(C(=O)NOC)c(F)cc4F)c3c2C(C)C)o1` [compound 11374515, 5-[6-(5-Ethyl-[1,3,4]oxadiazol-2-yl)-5-isopropyl-pyrrolo[2,1-f][1,2,4]triazin-4-ylamino]-2,4-difluoro-N-methoxy-benzamide, reference compound], for which the “FGFR1, rIC50” value at FGFR1 worked out at 2.6. Also, the results for the IC50 in the experiment with any gene target (setting [3]), in the experiment with any gene target (setting [4]) and on VEGFR2 [2] (setting [5]) were 2 nM, 1.8 nM and 1.8 nM, respectively. For the same compound, the “avg rIC50” value in the experiment on VEGFR2 and FGFR1 is reported as 1.8. Also, the “VEGFR2, rIC50” value at VEGFR2 [1] came out at 1.0.
Regarding `COc1cc2c(Nc3ccc(C#N)cc3F)ncnc2cc1OCCn1ccnn1` [compound 5329034, Anilinoquinazoline deriv. 36, reference compound], the “FGFR1, rIC50” value at FGFR1 is given as 10.0. Besides, the IC50 is 300 nM in the experiment with any gene target (setting [3]), 600 nM with any gene target (setting [6]) and 300 nM on VEGFR2 [2]. Also, the “avg rIC50” value in the experiment with VEGFR2 and FGFR1 is recorded as 5.3. The “VEGFR2, rIC50” value on VEGFR2 [1] turned out to be 0.5.
`CONC(=O)c1cc(Nc2ncnn3cc(-c4nnc(CS(C)(=O)=O)o4)c(C(C)C)c23)c(F)cc1F` [compound 10436729, 2,4-Difluoro-5-[5-isopropyl-6-(5-methanesulfonylmethyl-[1,3,4]oxadiazol-2-yl)-pyrrolo[2,1-f][1,2,4]triazin-4-ylamino]-N-methoxy-benzamide, reference compound]: at FGFR1, the “FGFR1, rIC50” value is reported as 2.2. The IC50 is 2 nM in the experiment with any gene target (setting [3]), 2.1 nM in the experiment on any gene target (setting [4]) and 2.1 nM at VEGFR2 [2] (setting [5]). Moreover, the “avg rIC50” value in the experiment with VEGFR2 and FGFR1 is listed as 1.6. Moreover, on VEGFR2 [1], the “VEGFR2, rIC50” value came to 1.0.
With `COC(=O)c1ccc2c(C(=Nc3ccc(-n4c(C)ccc4CN4CCN(C)CC4)cc3)c3ccccc3)c(O)[nH]c2c1` [compound 141475848, Methyl 2-hydroxy-3-[N-[4-[2-methyl-5-[(4-methylpiperazin-1-yl)methyl]pyrrol-1-yl]phenyl]-C-phenylcarbonimidoyl]-1H-indole-6-carboxylate, reference compound], on FGFR1, the “FGFR1, rIC50” value is given as 3.5. Also, the results for the IC50 with any gene target (setting [3]), in the experiment with any gene target (setting [6]) and on VEGFR2 [2] were 7 nM, 9.9 nM and 6.5 nM, respectively. Moreover, the “avg rIC50” value in the experiment on VEGFR2 and FGFR1 was 2.1. In addition, the “VEGFR2, rIC50” value on VEGFR2 [1] worked out at 0.7.
